Measurements reported in patent US8754121B2, “Use of deoxyelephantopin (DET) and analogues thereof for treatment of melanoma” (priority 2010, dated 2014).
Read-outs that look alike come from different tables or passages of the source.

Key:
B16 cells = assay: Time-lapse cell motility assay; format: cell-based, murine; details: time-lapse videomicroscopy over 24 h, 3 μM DET, 40 μM CP, 3 μM DET plus 40 μM CP; for migration velocity of B16 cells: vehicle control 0.35±0.09; for migration distance of B16 cells: vehicle control 488.2±147.1
Procedure: Cell motility was assessed by time-lapse videomicroscopy. B16 cells were seeded in 6 cm dish for 3 h and maintained at constant temperature (37° C.) and 5% CO2 chamber throughout the experimental period. Cells were observed under an inverted microscope (Zeiss Axiovert 200M), and phase-contrast snap photographs (one frame every 30 min) were digitally recorded for 24 h. Cell paths were generated from centroid positions, and cell velocities of migration were analyzed using the tracking object of the Metamorph software (Molecular Device).

B16 melanoma cells [1] = assay: Cell cycle analysis by flow cytometry (sub-G1 fraction); format: cell-based, murine; details: 24 h, data not shown
Procedure: Both adherent and floating cells were collected, washed with PBS and fixed with 1 mL of ice-cold 70% ethanol overnight at 4° C.

B16 melanoma cells [2] = assay: Migration and invasion assay (trans-well); format: cell-based, murine; details: 24 h; for B16 melanoma cell invasion: Matrigel
Procedure: B16 cells (1×10^5 cells) were cultured in culture-inserts of boyden chamber (ibidi, Germany) for 12 h. The culture-inserts were removed and added DET or cisplatin alone or in combination for 24 h. B16 cells were added into a 24-transwell permeable plate (8.0 μm polycarbonate membrane, 6.5 mm insert; Corning Incorporated, Corning, N.Y.) coated with Matrigel basement membrane matrix. The bottom wells received 50 μL medium having the same concentration of serum as the top well, either 1% or 10% FBS. Cells were removed from the upper and lower sides of the filter after 24 h. The ratio of the counts obtained from the bottom versus total counts from both sides was used to determine migration and invasiveness. The invading cells remaining in the well were counted in six randomly chosen low-power fields at 100× original magnification by inverted fluorescence microscopy.

B16 melanoma cells [3] = assay: MTT cell viability assay, B16 cell proliferation; format: cell-based, murine; details: 24 h, 37° C., read-out: IC50, inhibition of B16 cell proliferation
Procedure: Human melanocytes and murine B16 melanoma cells obtained from the American Type Culture Collection (ATCC®, MD) were grown overnight in a 10-mm petri-dish at 37° C. in MEM and RPMI medium 1640, respectively, supplemented with 10% heat-inactivated FBS, 100 units/mL penicillin, and 100 μg/mL streptomycin, in a humidified 5% CO2 incubator. Cell viability was measured by MTT-based colorimetric assay. The formula to calculate viable cell (%) is as follows: Cell viability (%)=(sample OD550/control OD550)×100% Synergism of DET and Cisplatin

[4] = Primary metabolome of kidney tissues by UPLC/ESI-Q-TOF MS; format: in vivo, C57BL/6J mice
Procedure: Primary metabolome in the kidney tissues of test mice with various treatments were analyzed using UPLC-QTOF MS. Kidney samples (150 mg) were homogenized with 600 μL methanol and 127.5 μL distilled water. The homogenates were vigorously mixed with 1.2 mL chloroform:H2O solution (1:1, v/v) and then put at −20° C. for 20 min. After centrifugation at 13000×g for 10 min at 4° C., the supernatant (water layer) was collected, dried in a vacuum, and then reconstituted in 100 μL of 50% methanol for analysis.
LC-MS was performed with a LC system (ACQUITY UPLC, Waters, Millford, Mass.) coupled to a hybrid Q-TOF mass spectrometer (Synapt HDMS, Waters, Manchester, U.K.). The sample was separated online with a reverse-phase column (HSS T3 C18, 1.8 μm, 2.1 mm×150 mm, Waters, Milford, Mass.) which was kept in a column oven at 40° C. The mobile phases for positive ion mode consisted of 0.1% formic acid in 2% ACN (buffer A) and 0.1% formic acid in 100% ACN (buffer B). The mobile phases for negative ion mode consisted of pure H2O (buffer A) and pure 100% AcCN (buffer B).
The mass spectrometer equipped with lock electrospray ionization probe was operated in both positive and negative (ESI) modes. The electrospray voltage was set at 3 kV for positive ion mode and −2.5 kV for negative ion mode, and the cone voltage was 40V. The cone and desolvation gas flow were 50 and 700 L/h, respectively. A lock mass calibration of sulfadimethoxin (0.5 mg/L) in water/MeOH (50:50, v/v) was introduce by the HPLC pump (LC-10ATVP, Shimadzu, Japan) and split the 5 μL/min to the lockspray probe. The acquisition method was set to one full MS scan (50-990 m/z) with 0.2 sec scan time in centroid data mode.
The UPLC-MS data were analyzed using MarkerLynx XS version 4.1 SCN639 (Waters, Millford, Mass.). In this application, the peaks in the 0.5-4 min LC-MS data were detected and the noise reduced in both LC and MS domains. The extracted peak information was also processed to remove the peak-to-peak noise, deisotope and filter the MS peak with the intensity lower than 50 counts. A list of the intensities of the processed peaks for each of the LC-MS data was generated using retention time (RT) and m/z data pairs as the identifier of each peak. The processed data for each sample were combined and aligned for each of the RT-m/z pair to generate the final data table. The ion intensities for each peak were then normalized within each sample and the 3-dimensional data, peak identifier (RT-m/z pair), sample name, and ion intensity were analyzed by principle component analysis (PCA). Partial least-squares-discriminant analysis (PLS-DA), a supervised chemometric procedure, was used to define the maximum classification and separation of independent samples.

[5] = system: lung metastasis of B16 melanoma (B16-COX-2/Luc cells); assay: Inhibition of lung metastasis of B16 cells in syngeneic mice, in vivo bioluminescence imaging; design: species or system C57BL/6J mice; details: for mean bioluminescence intensity compared to tumor group (100%): Day 30; for remained bioluminescence intensity relative to tumor control group (100%): Day 21
Procedure: Stable B16 melanoma cell clone carrying COX-2 promoter driven-luciferase (pGL-COX-2/Luc) reporter gene plasmid was established. […] The B16-COX-2/Luc stable cell line was used in the mouse lung metastasis experiments.
After 10 minutes of incubation with luciferin, each mouse was placed in a right lateral decubitus position and a digital grayscale animal image was acquired using an IVIS spectrum (Xenogen Corp.). The acquisition and overlay of a pseudocolor image was taken, which represents the spatial distribution of detected photons emerging from active luciferase within the animals. Signal intensity was quantified using an IVIS Spectrum system (Xenogen Corp.) as the sum of all detected photons per second on Day 0, 7, 14, 18, 21, 23, 26 and 30 of treatment.

[6] = Histology, TUNEL and F4/80 immunostaining of kidney tissues
Procedure: (§1) Female C57BL/6J mice (National Laboratory Animal Center, Tainan, Taiwan) were given a standard laboratory diet and distilled water ad libitum and kept on a 12-h light/dark cycle at 22±2° C. In total, 63 mice were randomly divided and assigned into 7 groups. Female C57BL/6J mice received an intravenous (i.v) injection with 1×10^5 B16 cells in 200 μL PBS through the tail vein at Day 0. On Day 1, mice were divided into tumor group, CP2 group, DET10 group, DET10+CP1 group, and CP2→DET10 group. The mice were treated intraperitoneally (i.p.) every two days with 2 mg/kg body weight (BW) cisplatin (CP2), 10 mg/kg BW DET (DET10), DET10 mixed with 1 mg/kg BW cisplatin (DET10+CP1), and with CP2 five times and DET10 five times, then CP2 and DET10 taking turns every two days till the end of the experiments (CP2→DET10 group), respectively. The Pre-DET10 group mice were treated i.p with DET (10 mg/kg BW) every two days two weeks before (Day 14) tumor cells inoculation on Day 0, and continuously treated with DET10 till the end of the experiment. The tumor control mice were treated with vehicle DMSO. The mice in the sham control group were injected i.p. with 20 μL DMSO on Day 1 every 2 days throughout the experimental period.
Paraffin-embedded kidney tissues were prepared from three mice in each group on Day 21. The paraffin-embedded kidney was sectioned (4 μm) and underwent H&E staining. In situ apoptotic cells in kidney tissues were determined by TUNEL assay (Chemicon) and the mean proportions of positive TUNEL cells were measured using AxioVision software (Carl Zeiss MicroImaging, Inc.). Immunostaining of macrophage infiltration in the kidney tissues was performed using F4/80 antibody and visualized with goat anti-mouse Cy3-labeled secondary antibodies (Jackson ImmunoResearch), counterstained with DAPI (1 μg/mL).

[7] = Day 21
Procedure: Female C57BL/6J mice (National Laboratory Animal Center, Tainan, Taiwan) were given a standard laboratory diet and distilled water ad libitum and kept on a 12-h light/dark cycle at 22±2° C. In total, 63 mice were randomly divided and assigned into 7 groups. Female C57BL/6J mice received an intravenous (i.v) injection with 1×10^5 B16 cells in 200 μL PBS through the tail vein at Day 0. On Day 1, mice were divided into tumor group, CP2 group, DET10 group, DET10+CP1 group, and CP2→DET10 group. The mice were treated intraperitoneally (i.p.) every two days with 2 mg/kg body weight (BW) cisplatin (CP2), 10 mg/kg BW DET (DET10), DET10 mixed with 1 mg/kg BW cisplatin (DET10+CP1), and with CP2 five times and DET10 five times, then CP2 and DET10 taking turns every two days till the end of the experiments (CP2→DET10 group), respectively. The Pre-DET10 group mice were treated i.p with DET (10 mg/kg BW) every two days two weeks before (Day 14) tumor cells inoculation on Day 0, and continuously treated with DET10 till the end of the experiment. The tumor control mice were treated with vehicle DMSO. The mice in the sham control group were injected i.p. with 20 μL DMSO on Day 1 every 2 days throughout the experimental period. […] On Day 21 post-tumor injection, three mice from each group were euthanized and blood collected for complete blood count (CBC) analysis.
Complete blood samples of test mice in each group on Day 21 were subjected to the analysis of white blood cell (WBC), neutrophil (N), monocyte (M), basophil (B) red blood cell (RBC), platelet (PLT), hemoglobin (Hb), and hematocrit (Ht) and other cell counts with a hemacytometer (FIG. 10).

[8] = system: metastatic B16 melanoma tumors; assay: Survival of mice carrying metastatic B16 melanoma; format: in vivo, C57BL/6J mice; details: tumor control 33 days
Procedure: All data were expressed as means±SD. For the survival data, the log-rank test was used to determine differences among tumor control, drug and compound treated groups. For other experiments, differences between treatments were determined by ANOVA. A P<0.05 is considered statistically significant.

[9] = for plasma BUN: groups CP2 and DET10+CP1
Procedure: as §1
The plasma BUN content, an indication of kidney function, was determined in test animals using QuantiChrom™ Urea Kit (BioAssay Systems).

[10] = Body weight of B16 tumor-bearing mice; format: in vivo, C57BL/6J mice; details: groups CP2 (cisplatin 2 mg/kg BW) and DET10+CP1, i.p. every two days; P<0.05
Procedure: Female C57BL/6J mice (National Laboratory Animal Center, Tainan, Taiwan) were given a standard laboratory diet and distilled water ad libitum and kept on a 12-h light/dark cycle at 22±2° C. In total, 63 mice were randomly divided and assigned into 7 groups. Female C57BL/6J mice received an intravenous (i.v) injection with 1×10^5 B16 cells in 200 μL PBS through the tail vein at Day 0. On Day 1, mice were divided into tumor group, CP2 group, DET10 group, DET10+CP1 group, and CP2→DET10 group. The mice were treated intraperitoneally (i.p.) every two days with 2 mg/kg body weight (BW) cisplatin (CP2), 10 mg/kg BW DET (DET10), DET10 mixed with 1 mg/kg BW cisplatin (DET10+CP1), and with CP2 five times and DET10 five times, then CP2 and DET10 taking turns every two days till the end of the experiments (CP2→DET10 group), respectively. The Pre-DET10 group mice were treated i.p with DET (10 mg/kg BW) every two days two weeks before (Day 14) tumor cells inoculation on Day 0, and continuously treated with DET10 till the end of the experiment. The tumor control mice were treated with vehicle DMSO. The mice in the sham control group were injected i.p. with 20 μL DMSO on Day 1 every 2 days throughout the experimental period. Tumor volumes were measured every 3 days and the body weight recorded once a week.

Human melanocytes = assay: MTT cell viability assay, normal melanocytes; format: cell-based; details: 24 h
Procedure: Cell viability was measured by MTT-based colorimetric assay.

[11] = i.p. every two days from Day 1, groups CP2 (cisplatin 2 mg/kg BW), DET10 (DET 10 mg/kg BW), DET10+CP1, CP2→DET10
[12] = Day 21, groups CP2, DET10, DET10+CP1, CP2→DET10, i.p. every two days from Day 1
[13] = groups CP2, DET10, DET10+CP1, CP2→DET10, compared with control tumor-bearing group
[14] = i.p. every two days from Day 1, groups CP2, DET10, DET10+CP1, CP2→DET10
[15] = pre-DET and DET groups, assignment to group unclear
[16] = Pre-DET10 group: DET 10 mg/kg BW i.p. every two days from two weeks before tumor inoculation to end

With N.N.[Cl][Pt][Cl] [CP, cis-diamminedichloroplatinum(II), reference compound] the “migration velocity of B16 cells” value (B16 cells) was 0.26±0.14 μm/min, the “migration distance of B16 cells” value (B16 cells) was 376.6±100 μm and the “sub-G1 (apoptotic) cell fraction” value (B16 melanoma cells [1]) was 9%. For the same compound, the “B16 melanoma cell migration” value (B16 melanoma cells [2]) was “inhibited”, the “B16 melanoma cell invasion” value (B16 melanoma cells [2]) was “inhibited” and the IC50 (B16 melanoma cells [3]) was 45 µM. The “decrease in alanine, aspartate, phenylalanine, and tryptophan in kidney tissues, in comparison with the sham control” value ([4]; CP2 group) was 1.7- to 2.4 fold, the “increase in pyruvate, citrulline, creatine, uric acid, hippuric acid, and 5-HIAA in kidney tissues, in comparison with the sham control” value ([4]; CP2 group) was 1.6- to 12.5 fold and the “increase in 5-HIAA in kidney tissues” value ([4]; groups CP alone, DET+CP, CP→DET) was 8.6 fold. The “mean bioluminescence intensity compared to tumor group (100%)” value (from here on “mean bioluminescence intensity … (100%)”) [5, 11] was 2%, the “H&E staining of kidney tissues” value ([6]; Day 21, CP2 group, cisplatin 2 mg/kg BW i.p. every two days) was “severe glomerular congestion and tubular epithelial atrophy” and the “TUNEL-positive (apoptotic) cells in renal tissues” value (“TUNEL-positive (apoptotic) cells” below) [6, 12] was “observed mostly”. For the same compound, the “macrophage/monocyte infiltration in renal tissues (F4/80 immunostaining)” value (from here on “macrophage/monocyte infiltration”) [6, 13] was “much significant”, the “neutrophil population, times higher than the sham control” value ([7]; CP2 group) was 3.5 times and the “neutrophil population, times higher than the tumor group” value ([7]; CP2 group) was 2.55 times. For the same compound, the “effect on the peripheral blood cells profile (haematological toxicity)” value (“effect … (haematological toxicity)” for short) ([7]; groups CP2 and DET10) was “severe haematological toxicity”, the median survival [8, 14] was 43 days and the “plasma BUN” value ([9]; Day 14, sham control 25.4±4.1) was 61.1 ± 4.3 mg/dL. For the same compound, the “plasma BUN” value ([9]; Day 21, sham control 25.1±4.1) was 67.3 ± 0.1 mg/dL and the “body weight of test mice” value [10] was “significantly decreased”.

For C=C(C)C(=O)O[C@H]1CC2=C[C@@H](C/C(C)=C/[C@H]3OC(=O)C(=C)[C@H]13)OC2=O [DET, deoxyelephantopin], the “migration velocity of B16 cells” value (B16 cells) was 0.16±0.06 μm/min, the “migration distance of B16 cells” value (B16 cells) was 224.1±85.9 μm and the “sub-G1 (apoptotic) cell fraction” value (B16 melanoma cells [1]) was 8.5%. For the same compound, the “B16 melanoma cell migration” value (B16 melanoma cells [2]) was “inhibited”, the “B16 melanoma cell invasion” value (B16 melanoma cells [2]) was “inhibited” and the IC50 (B16 melanoma cells [3]) was 4.5 µM. For the same compound, the “increase in carnitine in kidney tissues” value [4, 15] was 2.3 fold, the “increase in pyruvate in kidney tissues” value [4, 15] was 1.6 fold and the “increase in taurine in kidney tissues” value [4, 15] was 2.1 fold. The “remained bioluminescence intensity relative to tumor control group (100%)” value [5, 16] was 15%, the “remained bioluminescence intensity relative to tumor control group (100%)” value [5, 11] was 49% and the “mean bioluminescence intensity … (100%)” value [5, 16] was 23%. For the same compound, the “mean bioluminescence intensity … (100%)” value [5, 11] was 45%, the “TUNEL-positive (apoptotic) cells” value ([6]; Day 21, Pre-DET10 group, DET 10 mg/kg BW from two weeks before tumor inoculation) was “not detectable” and the “TUNEL-positive (apoptotic) cells” value [6, 12] was “not detectable”. The “macrophage/monocyte infiltration” value ([6]; Pre-DET10 group) was “little or no detectable inflammatory cell infiltration”, the “macrophage/monocyte infiltration” value [6, 13] was “little or no detectable inflammatory cell infiltration” and the “toxicity on normal human melanocytes” value (Human melanocytes) was “little or no toxicity”. The “effect … (haematological toxicity)” value ([7]; Pre-DET10 group) was “did not cause deleterious effect”, the “effect … (haematological toxicity)” value ([7]; groups CP2 and DET10) was “did not cause deleterious effect” and the “levels of neutrophil (N) counts” value ([7]; groups DET10, DET10+CP1, CP2→DET10) was “Increase levels”. For the same compound, the median survival ([8]; Pre-DET10 group: DET 10 mg/kg BW i.p. from two weeks before tumor inoculation) was 43 days, the median survival [8, 14] was 39 days and the “change of BUN level compared to the sham control group” value ([9]; DET10 group, DET 10 mg/kg BW i.p. every two days from Day 1) was “little or no detectable changes”. For the same compound, the “change of BUN level compared to the sham control group” value ([9]; Pre-DET10 group, DET 10 mg/kg BW from two weeks before tumor inoculation) was “little or no detectable changes”.
